In patent US11345700B2, “Methods of preparing inhibitors of influenza viruses replication” (priority 2013, dated 2022):

Experiment: Human influenza challenge: safety assessment, adverse events
Type: in vivo, healthy volunteers (humans)
Description: A list of adverse events occurring in ≥10% of subjects in any treatment group is presented (Table 29). Influenza-like illness was the most frequently reported adverse event, and was reported by an approximately equal proportion of subjects in the placebo and Compound (1) groups.

Structure (SMILES): O=C(O)[C@H]1[C@H]2CC[C@H](CC2)[C@@H]1Nc1nc(-c2c[nH]c3ncc(F)cc23)ncc1F [Compound (1)]
- Adverse event: Nausea (100 mg, N = 16): 0 n(%)
- Adverse event: Oropharylngeal pain (100 mg, N = 16): 2 (12.5) n(%)
- Adverse event: Rhinorrhea (100 mg, N = 16): 0 n(%)
- Adverse event: Spirometry abnormal (100 mg, N = 16): 2 (12.5) n(%)
- Adverse event: Tension Headache (100 mg, N = 16): 0 n(%)
- Adverse event: Alanine aminotransferase increased (400 mg, N = 19): 1 (5.3) n(%)
- Adverse event: Aspartate aminotransferase increased (400 mg, N = 19): 1 (5.3) n(%)
- Adverse event: Blood phosphorus decreased (400 mg, N = 19): 0 n(%)
- Adverse event: Dermatitis contact (400 mg, N = 19): 0 n(%)
- Adverse event: Headache (400 mg, N = 19): 4 (21.1) n(%)
- Adverse event: Influenza-like illness (400 mg, N = 19): 10 (52.6) n(%)
- Adverse event: Malaise (400 mg, N = 19): 0 n(%)
- Adverse event: Nasal congestion (400 mg, N = 19): 0 n(%)
- Adverse event: Nausea (400 mg, N = 19): 2 (10.5) n(%)
- Adverse event: Oropharylngeal pain (400 mg, N = 19): 0 n(%)
- Adverse event: Rhinorrhea (400 mg, N = 19): 2 (10.5) n(%)
- Adverse event: Spirometry abnormal (400 mg, N = 19): 4 (21.1) n(%)
- Adverse event: Tension Headache (400 mg, N = 19): 2 (10.5) n(%)
- Adverse event: Alanine aminotransferase increased (900/600 mg, N = 19): 0 n(%)
- Adverse event: Aspartate aminotransferase increased (900/600 mg, N = 19): 0 n(%)
- Adverse event: Blood phosphorus decreased (900/600 mg, N = 19): 6 (31.6) n(%)
- Adverse event: Dermatitis contact (900/600 mg, N = 19): 0 n(%)
- Adverse event: Headache (900/600 mg, N = 19): 0 n(%)
- Adverse event: Influenza-like illness (900/600 mg, N = 19): 9 (47.4) n(%)
- Adverse event: Malaise (900/600 mg, N = 19): 0 n(%)
- Adverse event: Nasal congestion (900/600 mg, N = 19): 0 n(%)
- Adverse event: Nausea (900/600 mg, N = 19): 1 (5.3) n(%)
- Adverse event: Oropharylngeal pain (900/600 mg, N = 19): 1 (5.3) n(%)
- Adverse event: Rhinorrhea (900/600 mg, N = 19): 0 n(%)
- Adverse event: Spirometry abnormal (900/600 mg, N = 19): 0 n(%)
- Adverse event: Tension Headache (900/600 mg, N = 19): 1 (5.3) n(%)
- Adverse event: Alanine aminotransferase increased (1200/600 mg, N = 18): 6 (33.3) n(%)
- Adverse event: Aspartate aminotransferase increased (1200/600 mg, N = 18): 2 (11.1) n(%)
- Adverse event: Blood phosphorus decreased (1200/600 mg, N = 18): 4 (22.2) n(%)
- Adverse event: Dermatitis contact (1200/600 mg, N = 18): 0 n(%)
- Adverse event: Headache (1200/600 mg, N = 18): 2 (11.1) n(%)
- Adverse event: Influenza-like illness (1200/600 mg, N = 18): 7 (38.9) n(%)
- Adverse event: Malaise (1200/600 mg, N = 18): 0 n(%)
- Adverse event: Nasal congestion (1200/600 mg, N = 18): 1 (5.6) n(%)
- Adverse event: Nausea (1200/600 mg, N = 18): 0 n(%)
- Adverse event: Oropharylngeal pain (1200/600 mg, N = 18): 0 n(%)
- Adverse event: Rhinorrhea (1200/600 mg, N = 18): 1 (5.6) n(%)
- Adverse event: Spirometry abnormal (1200/600 mg, N = 18): 4 (22.2) n(%)
- Adverse event: Tension Headache (1200/600 mg, N = 18): 0 n(%)
- adverse event incidence: decreased blood phosphorus level (Compound (1) groups): 18.1%
- adverse event incidence: nasal congestion (Compound (1) groups): 1.4%
- adverse event incidence: rhinorrhea (Compound (1) groups): 4.2%
- Adverse event: Alanine aminotransferase increased (Pooled Compound (1), N = 72): 10 (13.9) n(%)
- Adverse event: Aspartate aminotransferase increased (Pooled Compound (1), N = 72): 4 (5.6) n(%)
- Adverse event: Blood phosphorus decreased (Pooled Compound (1), N = 72): 13 (18.1) n(%)
- Adverse event: Dermatitis contact (Pooled Compound (1), N = 72): 3 (4.2) n(%)
- Adverse event: Headache (Pooled Compound (1), N = 72): 7 (9.7) n(%)
- Adverse event: Influenza-like illness (Pooled Compound (1), N = 72): 34 (47.2) n(%)
- Adverse event: Malaise (Pooled Compound (1), N = 72): 2 (2.8) n(%)
- Adverse event: Nasal congestion (Pooled Compound (1), N = 72): 1 (1.4) n(%)
- Adverse event: Nausea (Pooled Compound (1), N = 72): 3 (4.2) n(%)
- Adverse event: Oropharylngeal pain (Pooled Compound (1), N = 72): 3 (4.2) n(%)
- Adverse event: Rhinorrhea (Pooled Compound (1), N = 72): 3 (4.2) n(%)
- Adverse event: Spirometry abnormal (Pooled Compound (1), N = 72): 10 (13.9) n(%)
- Adverse event: Tension Headache (Pooled Compound (1), N = 72): 3 (4.2) n(%)
- discontinuations due to Compound (1)-related adverse events; serious adverse events (healthy volunteers, five daily doses): no discontinuations
- alanine aminotransferase (ALT) (observed in both placebo and Compound (1) recipients): elevations in alanine aminotransferase (ALT) were observed
